From patent US9099654B2, “Benzofluorene compound, emission materials and organic electroluminescent device” (JNC Corporation, priority 2006, dated 2015)

Test: Solubility in solvents at 25° C. (Table 1)
Assay type: physicochemical

Row | SMILES | Solubility (25° C.) g/100 ml (ethyl acetate) [g/100 ml] | Solubility (25° C.) g/100 ml (toluene) [g/100 ml] | solubility in the solvents compared with compound (2) (ethyl acetate and toluene, comparison in words)
1 | c1ccc(C2(c3ccccc3)c3cc(-c4ccc5ccccc5c4)ccc3-c3c2cc(-c2ccc4ccccc4c2)c2ccccc32)cc1 [Compound (1-13)] | 1 | 8 | apparently more excellent in solubility in the solvents than the compound (2)
2 | c1ccc(C2(c3ccccc3)c3cc(-c4ccc5ccccc5c4)ccc3-c3ccc4cc(-c5ccc6ccccc6c5)ccc4c32)cc1 [Compound (2), 3,9-dinaphthalene-2-yl-11,11-diphenyl-11H-benzo[a]fluorene, reference compound] | 0.2 | 0.9 | 
